For series [1] the following is noted: independent of the rate of metabolism; cited from earlier work.
For series [2], the system named is DA release in NAcc. As to the kind of experiment: In vivo microvoltammetry, DA release in NAcc (clozapine studies). The arrangement: species or system Sprague-Dawley Rattus Norvegicus. Particulars: Acute, clozapine 20 mg/kg i.p. + cocaine 10 mg/kg i.p. How it is done:
(§1) There is an increasing awareness that a psychosis, similar to that of schizophrenic psychosis, can be derived from cocaine addiction. […] Release mechanisms for monoamines, were determined by using a depolarization blocker, gamma-butyrolactone (γBL). […] Acute and Subacute studies were performed for each treatment group.
(§2) The stereotaxic equipment was purchased from David Kopf Instruments, Tujunga, Calif. A Ag/AgCl reference electrode was placed in contact with dura, 7 mm anteriorally and contralaterally to the indicator microelectrode. A stainless steel auxiliary microelectrode was placed in contact with dura. BRODERICK PROBE® microelectrodes were manufactured on site.
(§3) In vivo microvoltammetric studies on conscious Sprague-Dawley laboratory rats were begun nine to fifteen days after the aseptic surgical operations were performed. On each experimental day, the animal was placed in a Plexiglas-copper faradaic chamber. The three-microelectrode assembly, enclosed within the animal's prosthetic acrylic cap, was connected to a CV37 detector by means of a mercury commutator (Br. Res. Instr., Princeton, N.J.), a flexible cable, and a mating connector (BJM Electronics, Staten Island, N.Y.). The CV37 detector was electrically connected to a Minigard surge suppresser (Jefferson Electric, Magnetek, N.Y.) which was then connected to an electrical ground in isolation. […] Each animal was used as its own control. Changes in synaptic concentrations of DA and 5-HT are presented as percent change (% of control) in order to minimize normal between-animal variations. […] In vivo microvoltammetric scans were recorded in sec and repeated every five min for a period of 2 hrs before each treatment and a period of two hrs after each treatment.
(§4) Potentials were applied with a CV37 detector (BAS, West Lafayette, Ind.). Potentials were applied from −0.2V to +0.4V with respect to a Ag/AgCl (1M NaCl) electrode, at a scan rate of 10 mV/sec at time constants of 5 and 1 tau. One scan was completed in 60 sec. Non-faradaic charging current was eliminated in the first 25 sec.
(§5) Calibration curves were determined experimentally, in vitro, in a freshly prepared deoxygenated physiological saline-phosphate buffer solution (0.01 M, pH=7.4). We use ultra pure Nitrogen (N2) (T. W. Smith Corp., Bklyn, N.Y.) to deoxygenate the buffer solution. […] Calibration studies were also performed in freshly prepared deoxygenated buffer solutions containing phosphotidylethanolamine (PEA), combined with bovine serum albumin (BSA) (Sigma Aldrich, St. Louis, Mo.), a solution which closely mimics brain constituents. […] Detection limits for basal synaptic concentrations of DA and 5-HT in NAcc were 12 nM and 2 nM respectively.

In series [3] the test system is 5-HT release in NAcc. As to the kind of experiment: In vivo microvoltammetry, 5-HT release in NAcc (clozapine studies). The arrangement: species or system Sprague-Dawley Rattus Norvegicus. As to conditions: Acute, clozapine 20 mg/kg i.p. + cocaine 10 mg/kg i.p. How it is done:
as §1, §2, §3, §4, §5

In series [4] the test system is Sprague-Dawley laboratory rats. Kind of series: Locomotor activity (ambulations) by infrared photobeams (clozapine studies). As to conditions: Acute, clozapine 20 mg/kg i.p. + cocaine 10 mg/kg i.p. It is filed as in vivo, Sprague-Dawley Rattus Norvegicus. An excerpt:
Locomotor activity (ambulation) was monitored with infrared photobeams at the same time as DA and 5-HT release in NAcc was detected with BRODERICK PROBES® in conjunction with In Vivo Microvoltammetry. The chamber was faradaic, covered with copper to refract possible electrical artifacts (dimensions: 24 in (width) by 18 in (depth) by 23.5 in (height)). A 16 by 16 array of these infrared photobeams, were held in place by an aluminum frame which was situated ¾ in above the Plexiglas floor of the chamber to detect locomotor activity. Photobeams were sampled by a Pentium computer to define the x-y position of the animal within a 1.5 in resolution every 100 msec. When an x-y position was calculated, it was used to define the frequency of locomotor activity in counts. The locomotor activity system is a modified version of an Activity Pattern Monitor (APM) (San Diego Instruments, San Diego, Calif.). Behavioral data is presented in absolute frequency, i.e., number of counts recorded.
The first hr pre-drug allowed exploratory behavior. Exploratory behavior is defined as open-field behavior of ambulations (forward locomotion) wherein animals respond to the stimuli of a novel environment with high frequency of behavioral counts. The second hr pre-drug allowed the animal to become habituated before treatment.
In the Acute studies, each drug was administered at the end of the habituation period. Baseline (control) values were taken every five min for the last thirty min of the habituation period at which time drug injection(s) took place. Electrochemical recordings for DA and 5-HT release in NAcc, were continued for two hrs; at the same time, locomotor behavior continued to be monitored and recorded with infrared photobeams. At the end of the 2 hr drug(s) study, animals were then placed back in their home cages.
In the Subacute studies, which took place twenty-four hrs later, the animals were again placed in the faradaic behavioral chamber and no further drug was administered. Recordings of separate electrochemical signals for DA and 5-HT release in NAcc, were taken for one hr; at the same time, locomotor behavior was monitored and recorded with infrared photobeams.
Neurochemical and behavioral data, derived from the last thirty minutes of the habituation period, provided the baseline data. […] Where appropriate, data points in the time course were subjected to 95% Confidence Limits (C.L.).

The conditions of series [5]: cited from earlier work.
For series [6] the following is noted: cited from earlier work. This is another data set of the same source.

Like-named read-outs stand apart in the source and are kept apart here.

As to `Cc1nc2n(c(=O)c1CCN1CCC(c3noc4cc(F)ccc34)CC1)CCCC2O` (centres unmarked) [9-hydroxyrisperidone], the “Time for which the metabolite is active” value in series [1] was 22 h.
With `CN1CCN(C2=Nc3cc(Cl)ccc3Nc3ccccc32)CC1` [Clozapine, clozapine], the entries for the “Average reduction of cocaine-induced increases in DA release in NAcc” value in series [2] (first hr of study) and in series [2] (second hr of study) were 40% and 50%, respectively. Besides, the “Average reduction of cocaine-induced increases in 5-HT release in NAcc” value in series [3] (first hr of study) is 138%; in series [3] (second hr of study), 113%. For the same compound, the “Average reduction of locomotor activity (ambulation counts) produced by cocaine” value in series [4] (first half hr) amounted to 500 counts; in series [4] (next hr of study) it was 150 counts. In addition, the half-life (in general, the time in which the quantity being followed falls by half) in series [5] (at higher doses) is 4 to 66 h; in series [5] (at lower doses), 8 h.
In the case of `CN1[C@H]2CC[C@@H]1[C@@H](C(=O)O)[C@@H](OC(=O)c1ccccc1)C2` [benzoylecgonine], the elimination half-life in series [6] (after bolus injections (e.g., 14.7 umol/kg)) was 0.667 to 0.733 h.
Regarding `COC(=O)[C@H]1[C@@H](OC(=O)c2ccccc2)C[C@@H]2CC[C@H]1N2` [norcocaine], the Detection in brain entry in series [6] (after i.v. cocaine (20-40 mg/kg)) was “not detected at all”.

These data come from patent US20070270403A1 (priority 2003, published 2007).
